Data published in patent US12129491B2, “Methods and compositions relating to lung cell differentiation” (CHILDREN'S MEDICAL CENTER CORPORATION, priority 2016, dated 2024).

How the values were obtained:
Format in all cases: cell-based, mouse
[1] = system: CK1750 and SC241 cell lines; assay: Flow cytometry screen of adenocarcinoma cell lines for stem cell surface marker Sca-1 with a small molecule library
Description: The X axis crosses at the level of Sca-1 fluorescence measured in cells with the vehicle only control (DMSO). Bars up thus represent an increase in Sca-1 and Bars down represent a decrease. Each bar represents a different chemical treatment.
The CK1750 and SC241 cell lines derived from K-ras; p53fl/fl mouse adenocarcinoma tumors are highly enriched for Sca-1 and CD24. These cell lines were screened for factors that alter the expression of Sca1, CD24 or both markers, using the Stem Cell Core's Pilot Known Bioactives library, a small molecule library enriched in inhibitors of chromatin regulators (FIG. 1).

[2] = system: BASC 3D co-culture; assay: BASC 3D co-culture resorted by FACS for Sca-1 expressing cells; conditions: 3D cultures after 3 weeks growth, vs DMSO control (FIG. 2)
[3] = system: BASC (Bronchioalveolar Stem Cell) cultures; assay: 3D organoid culture of BASC: organoid morphology, lineage and staining
Description: (§1) Quantification and statistical analysis of organoid morphologies from cultures grown with UNC0638 or DMSO control. *=P<0.05, two tailed independent samples T-test
Graphs depicts quantification of organoid lineage proportions in UNC0638 and DMSO treated cultures. On the top graph bronchiolar and tracheobronichiolar organoids are counted separately. On the bottom graph these organoids are counted together. *=P<0.05, two tailed independent samples T-test
FIG. 6 depicts graphs of the quantification of PAS and Alcian Blue Stained Organoids in DMSO and UNC0638 treated Organoids.
(§2) AT2 cells are only capable of producing alveolar morphological organoids (FIG. 3).
(§3) UNC0638 treatment reduces the proportion of Sca-1+ve alveolar organoids and increases the proportion of small, undifferentiated organoids. (FIG. 4) 250 nM UNC0638 reduces alveolar colony formation and increase ciliated organoid formation (FIG. 5).
Organoids with visible movement are observed in control cultures, but are more frequent in 250 nM UNC0638 treated cultures. […] Some organoids in UNC0638 cultures (and some rare organoids in DMSO cultures) can be seen to be visibly moving. They have currents in their lumen causing material within to move around. […] Currents are always counter clockwise, consistent with direction of cilia.
Ciliated organoids have large amounts of material that stain for PAS and Alcian Blue, like mucus produced by goblet cells in the lung upper airways. This material is likely what can be seen to revolve in the organoids with interior lumen currents. G9a/G1p inhibition increases the proportion and overall number of PAS/Alcian Blue Staining Organoids (FIG. 6). PAS stained cells resemble goblet cells that produce mucus in the upper airway. […] This is precisely the same as the lung upper airways which have a lower layer of p63+ Keratin 5+ stem cells known as basal cells.

[4] = system: Sca-1−ve and Sca-1+ve sorted cells; assay: Quantification of organoid morphologies from Sca-1 sorted cells
Description: as §1, §3

[5] = system: AT2 (Alveolar Type 2) cultures; assay: 3D organoid culture of AT2 cells: organoid formation; conditions: AT2 cultures (FIG. 3)
Description: as §2

COc1cc2c(NC3CCN(C(C)C)CC3)nc(C3CCCCC3)nc2cc1OCCCN1CCCC1 [UNC0638]
change in Sca-1 on the cell surface ([1]; among library chemicals, vs DMSO vehicle control (FIG. 1)): largest increase in Sca-1
enrichment for high Sca-1 expressing, TPC-like cells ([1]; flow cytometry screen of adenocarcinoma cell lines): enriches for high Sca-1 expressing, TPC-like cells
Sca-1 expressing cells among stem cell-derived cells [2]: many more Sca-1 expressing cells
alveolar colony formation ([3]; 250 nM (FIG. 5)): reduces
ciliated organoid formation ([3]; 250 nM (FIG. 5)): increase
organoids with visible movement ([3]; 250 nM, vs control cultures): more frequent
organoids with alveolar morphology ([3]; BASC cultures (FIG. 3)): significantly fewer
organoids that resemble the large airways of the lung ([3]; lung stem cell cultures, beating multiciliated, goblet like and P63+ Kertatin 5+ cells): more organoids
H&E staining of Acetylated tubulin positive organoids ([3]; treated cultures): many of the cells are muticiliated
organoids that stained with Acetylated tubulin, a marker of Ciliated cells ([3]; treated cultures vs control): significantly more
alveolar organoid differentiation ([3]; vs DMSO control, *=P<0.05, two tailed independent samples T-test (FIG. 4, FIG. 5)): reduces
ciliated organoid differentiation ([3]; vs DMSO, *=P<0.05, two tailed independent samples T-test (FIG. 5)): increases
proportion of alveolar organoids ([4]; Sca-1+ve (FIG. 4)): reduces
proportion of small, undifferentiated organoids ([4]; Sca-1+ve (FIG. 4)): increases
organoid formation ([4]; Sca-1−ve sorted cells (FIG. 4)): significantly reduces
number of organoids [5]: significantly fewer organoids
